Structures are written as SMILES. Where two headings read alike, the source gives them in different places. Bounds are passed on as bounds.

We go through three molecules from PMC7904790 (Nature Communications, 2021).

One experiment has as its system H3122. Put plainly: cells. Further details: CellTiter-Glo viability of fusion-positive human cancer cell lines. As to conditions: Homo sapiens, NCI-H3122, 72 h; read-out: Entrectinib IC50.
In the next experiment the test system is JFCR-028-3. Put plainly: cells. Set-up: CellTiter-Glo viability of fusion-positive human cancer cell lines. As to conditions: 72 h; read-out: Entrectinib IC50.
The next experiment relates to KARPAS299. The experiment can be described thus: cells. Set-up: CellTiter-Glo viability of fusion-positive human cancer cell lines. To be noted: Homo sapiens, KARPAS-299, 72 h.
The test system of the next experiment is KM12. Put plainly: cells. As to conditions: Homo sapiens, KM12, 72 h. Set-up: CellTiter-Glo viability of fusion-positive human cancer cell lines.
The next experiment relates to MCC-003. Put plainly: cells. Further details: CellTiter-Glo viability of fusion-positive human cancer cell lines. As to conditions: 72 h; read-out: Entrectinib IC50.
The subject of a further experiment is T1, EML4-ALK WT.
T1 construct: EML4-ALK fusion, wild-type kinase domain, expressed in Ba/F3 cells
The experiment can be described thus: cells. Further details: CellTiter-Glo viability of Ba/F3 cells dependent on EML4-ALK, without IL-3. To be noted: Ba/F3 EML4-ALK, 72 h. How it is done: To identify drugs that can overcome these mutations, we screened our focused 90-inhibitor library using Ba/F3 cells expressing EML4-ALK I1171N + F1174I and I1171N + L1198H. At a concentration of 50 nM, gilteritinib suppressed the viability of both wild-type (WT) and compound mutant Ba/F3 cells (Fig. 1a). Since gilteritinib has reported as multi-kinase inhibitor, we first evaluated whether the ALK inhibitory efficacy of gilteritinib is driven by on-target activity or not. As a result of western blot analysis, gilteritinib suppressed the autophosphorylation of ALK in EML4-ALK-expressing Ba/F3 cells (Fig. 1b and Supplementary Fig. 1). […] As well as Ba/F3 cell model, we verified the activity of gilteritinib to H3122 cell line that is EML4-ALK-positive NSCLC cells. […] Then, the inhibitory concentration of gilteritinib is matched between ALK phosphorylation and its downstream signals. […] Further, using the phosphoproteomics data, kinase substrate-enrichment analysis (KSEA) predicted activate kinase candidates as potential gilteritinib targets and identified ALK as the most likely regulated protein (Fig. 1e, Supplementary Figs. 3 and 4, and Supplementary Table 2). To establish Ba/F3 cells expression WT or mutant EML4-ALK, TPM3-NTRK1, and CD74-ROS1 fusion proteins, pLenti6.3 vectors containing the cDNA of these fusion oncogenes were transfected into 293FT cells using packaging plasmids (ViraPower) for lentivirus production. Ba/F3 cells were infected using lentivirus-containing medium supplemented with polybrene (8 μg/ml), and after 24 h of incubation, the infected cells were selected using 7 μg/ml blasticidin (Invitrogen) for 1 week. After selection, each EML4-ALK-, TPM3-NTRK1-, and CD74-ROS1-expressing cell line was cultured in D-10 without IL-3. […] To stablise H3122, JFCR-028-3, MCC-003 cells expression WT or mutant EML4-ALK, KRAS G12C, cells were infected using lentivirus-containing medium supplemented with polybrene (8 μg/ml). After 24 h of incubation, the infected cells were selected using 7 μg/ml blasticidin for H3122, JFCR028-3, and 10 μg/ml for MCC-003, respectively. To stablise H3122 cells expression AXL, pHAGE-AXL vector (purchased from addgene) was transfected into 293FT cells using packaging plasmids for lentivirus production. H3122 cells were infected using lentivirus-containing medium supplemented with polybrene (8 μg/ml), and after 24 h of incubation, EGFP-positive cells were sorted using FACSMelody (BD Bioscience, San Jose, CA, USA). To stablise NIH3T3 oncogene-expressing cells, cells were infected using lentivirus-containing medium supplemented with polybrene (8 μg/ml), and after 24 h of incubation, the infected cells were selected using 2 μg/ml blasticidin for 1 week.

Experiment [1] concerns the target T2, NTRK1 (Homo sapiens, UniProt P04629).
T2 construct: TPM3-NTRK1 fusion in cells
Put plainly: phospho-NTRK1 western blot in KM12 / Ba/F3 cells. Type of experiment: cell-based. (In general: Immunoblotting shows a protein as a band on a membrane.)

The target in a further experiment is T3, EML4-ALK (Homo sapiens, UniProt Q9UM73, I1171N/F1174I).
T3 construct: EML4-ALK fusion expressed in Ba/F3 and H3122 cells
T3 sequence (Q9UM73 1058-1620 I1171N/F1174I limits assumed): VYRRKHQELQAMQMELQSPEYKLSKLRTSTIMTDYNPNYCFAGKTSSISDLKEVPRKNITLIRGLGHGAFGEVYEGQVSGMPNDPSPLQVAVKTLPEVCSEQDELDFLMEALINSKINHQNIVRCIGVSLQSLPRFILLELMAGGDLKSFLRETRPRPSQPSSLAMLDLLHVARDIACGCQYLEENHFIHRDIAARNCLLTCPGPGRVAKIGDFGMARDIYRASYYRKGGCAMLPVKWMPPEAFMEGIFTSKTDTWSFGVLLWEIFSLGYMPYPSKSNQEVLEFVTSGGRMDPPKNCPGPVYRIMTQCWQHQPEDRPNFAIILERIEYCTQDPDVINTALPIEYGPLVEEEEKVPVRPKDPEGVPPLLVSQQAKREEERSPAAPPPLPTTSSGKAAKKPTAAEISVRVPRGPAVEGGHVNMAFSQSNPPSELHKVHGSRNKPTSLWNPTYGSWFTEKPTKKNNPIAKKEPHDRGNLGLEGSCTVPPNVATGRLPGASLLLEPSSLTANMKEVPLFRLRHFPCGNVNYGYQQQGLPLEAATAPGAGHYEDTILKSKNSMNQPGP
Put plainly: phospho-ALK western blot in cells. In kind it is cell-based.

The target in experiment [2] is T4, NTRK1 (Homo sapiens, UniProt P04629, G667C).
T4 construct: TPM3-NTRK1 fusion expressed in Ba/F3 cells
T4 sequence (P04629 405-796 G667C limits assumed): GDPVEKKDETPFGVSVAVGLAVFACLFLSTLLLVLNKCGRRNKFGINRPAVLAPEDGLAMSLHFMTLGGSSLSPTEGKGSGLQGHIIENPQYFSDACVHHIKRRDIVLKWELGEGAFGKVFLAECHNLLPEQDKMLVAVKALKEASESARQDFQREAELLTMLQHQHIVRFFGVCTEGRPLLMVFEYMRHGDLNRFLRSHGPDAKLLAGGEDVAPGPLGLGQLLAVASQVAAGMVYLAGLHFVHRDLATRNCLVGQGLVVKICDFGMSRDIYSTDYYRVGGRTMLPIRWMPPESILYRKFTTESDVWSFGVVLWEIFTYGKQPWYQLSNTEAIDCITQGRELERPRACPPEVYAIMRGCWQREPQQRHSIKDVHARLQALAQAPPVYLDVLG
The experiment can be described thus: NTRK1 autophosphorylation western blot in Ba/F3 cells. Type of experiment: cell-based.

T2 sequence (P04629 416-796 limits assumed): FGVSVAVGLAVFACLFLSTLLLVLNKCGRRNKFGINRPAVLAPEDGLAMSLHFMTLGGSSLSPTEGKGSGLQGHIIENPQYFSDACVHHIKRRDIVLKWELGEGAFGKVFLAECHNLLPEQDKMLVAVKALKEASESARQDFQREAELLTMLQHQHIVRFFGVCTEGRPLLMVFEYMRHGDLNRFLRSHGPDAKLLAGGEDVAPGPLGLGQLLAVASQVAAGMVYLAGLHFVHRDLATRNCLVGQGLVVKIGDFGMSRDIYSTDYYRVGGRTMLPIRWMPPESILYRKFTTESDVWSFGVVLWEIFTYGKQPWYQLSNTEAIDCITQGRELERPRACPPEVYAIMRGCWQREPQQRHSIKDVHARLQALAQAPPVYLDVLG

As for `CN1CCN(c2ccc(C(=O)Nc3n[nH]c4ccc(Cc5cc(F)cc(F)c5)cc34)c(NC3CCOCC3)c2)CC1` [Entrectinib], the IC50 (commonly the concentration needed to halve the response being measured) in the experiment on H3122 was found to be 44 ± 12 nM; in the experiment with JFCR-028-3, 44 ± 17 nM; with KARPAS299 (read-out: Entrectinib IC50) it was 42 ± 8.5 nM; in the experiment on KM12 (read-out: Entrectinib IC50) it was 2.6 ± 0.28 nM; in the experiment with MCC-003 it was 496 ± 147 nM; with EML4-ALK WT it was 19 ± 10 nM.
As to `C[C@H]1Oc2cc(cnc2N)-c2c(nn(C)c2C#N)CN(C)C(=O)c2ccc(F)cc21` [lorlatinib], the IC50 in the experiment with KARPAS299 (read-out: Lorlatinib IC50) was 2.3 ± 1 nM; in the experiment with KM12 (read-out: Lorlatinib IC50), 138 ± 6 nM; in the experiment on EML4-ALK WT, […].
Consider `CCc1nc(C(N)=O)c(Nc2ccc(N3CCC(N4CCN(C)CC4)CC3)c(OC)c2)nc1NC1CCOCC1` [gilteritinib], for which, on NTRK1 [1], the “phospho-NTRK1 western blot in KM12 / Ba/F3 cells” value is reported as ~ 30 nM. Also, the “phospho-ALK western blot in cells” value on EML4-ALK is below 30 nM. Further, the “NTRK1 autophosphorylation western blot in Ba/F3 cells” value at NTRK1 [2] was “gilteritinib, but not entrectinib, inhibited the autophosphorylation of NTRK1 in TPM3-NTRK1 G667C-mutant Ba/F3 cells at a low concentration”. Moreover, the IC50 with EML4-ALK WT was 0.78 ± 0.27 nM.
